In assay [1] the test system is peritoneal macrophages. Put plainly: Transcription of inflammatory genes in primarily cultured intraperitoneal macrophages, real-time PCR. The assay is classed as cell-based. As to conditions: mouse intraperitoneal macrophages, 10 ng/mL LPS, 20 μM, 24 hours. As to the method:
(§1) Peritoneal macrophages of 7 to 8-week-old C57BL/6 male mice were isolated, seeded in a 24-well dish at a density of 1×10^6 cells/well, and then cultured for 4 hours in an RPMI1640 medium supplemented with 10% fetal bovine serum (FBS). A peritoneal macrophage culture broth was treated with each of 10 ng/mL of LPS and 20 μM JC1-40 or JC1-42, as indicated herein, for 24 hours. In this case, the peritoneal macrophages were kept at 37° C. in a thermo-hygrostat chamber in which 5% CO2 and 95% air were maintained.
First, mRNA expression levels of the inflammatory markers, such as TNF-α, NOS2, IL-1β, and IL-6, which induce rheumatoid arthritis, were measured using a real-time PCR (i.e., real-time reverse transcriptase-polymerase chain reaction; quantitative polymerase chain reaction) assay. As a result, it can be seen that the mRNA levels of TNF-α, NOS2, IL-1β and IL-6, which are involved in the induction of inflammation, in the intraperitoneal macrophages were reduced when the cells were treated with JC1-40 or JC1-42, as shown in FIG. 2.
A general note: Quantitative PCR measures a nucleic acid by following its amplification.

The test system of assay [2] is peritoneal macrophages. In words: Transcription of M2 anti-inflammatory genes in primarily cultured intraperitoneal macrophages, real-time PCR. Particulars: mouse intraperitoneal macrophages, 20 ng/mL IL-4, 20 μM, 24 hours. The assay is classed as cell-based. As to the method:
as §1, with “of 20” for “of 10”, “of IL-4” for “of LPS”, “hours. Thereafter, mRNA expression levels of the M2 anti-inflammatory markers, such as IL-10, Arg1, Retnla, and CD206, […], were measured using a real-time PCR (i.e., real-time reverse transcriptase-polymerase chain reaction; quantitative polymerase chain reaction) assay.” for “hours.”

Assay [3] relates to CD4+ T cells from spleens. In words: IL-17 secretion of spleen T cells, sandwich ELISA of culture supernatant. The assay is classed as cell-based. Particulars: mouse spleen CD4+ T cells, Th17 conditions. As to the method:
CD4+ T cells were isolated from the spleens of 7 to 8-week-old C57BL/6 male mice, seeded in a 48-well dish at a density of 5×10^5 cells/well, pre-treated with a varying concentration of JC1-40 (0.1, 0.5, 10, and 50 μM) for 24 hours, and then cultured for a day in an RPMI1640 medium supplemented with 10% fetal bovine serum (FBS). After the culturing, the cells were cultured for 3 days under Th17 differentiation conditions (including 0.5 μg/mL of an anti-CD3 antibody, 1 μg/mL of an anti-CD28 antibody, 2 ng/mL of TGF-β, 20 ng/mL of IL-6, 10 μg/mL of anti-IL-4, and 10 μg/mL of anti-IFN-γ). Thereafter, the cells were collected, washed with a FACS buffer for flow cytometry, and then blocked at 4° C. for 15 minutes to inhibit non-specific binding. As a cell surface marker, an antibody against CD4 (anti-CD4-PerCP) was added thereto, and reacted at 4° C. for 30 minutes, and the resulting reaction mixture was washed with a perm wash buffer. […] A change of the stained cells was analyzed using flow cytometry.
In addition, a culture supernatant of the JC1-40-treated Th17 cells was collected to determine an amount of IL-17 using a sandwich ELISA method. […] Then, a PNPP/DEA solution was added thereto, and developed color, and the optical density was then measured at a wavelength of 405 nm.

Assay [4] deals with Raw 264.7 macrophage cell line. In words: Transcription of inflammatory genes in LPS-treated macrophage cell line, real-time PCR. The assay is classed as cell-based, mouse. As to conditions: Raw 264.7, 50 ng/mL LPS, 20 μM, 24 hours. The procedure: A mouse macrophage cell line Raw 264.7 (ATCC TIB-71) was purchased from the American Type Culture Collection (ATCC). Raw 264.7 cells (2×10^5 cells/well) were seeded in a 6-well culture dish, and cultured for a day in a Dulbecco's modified Eagle's medium (DMEM) supplemented with 10% fetal bovine serum (FBS). The Raw 264.7 cells were kept at 37° C. in a thermo-hygrostat chamber in which 5% CO2 and 95% air were maintained. After the culturing, the cells were treated with 50 ng/mL of lipopolysaccharides (LPS) and 20 μM JC1-40 for 24 hours. Then, mRNA expression levels of the inflammatory markers, such as TNF-α, NOS2, IL-1β, and IL-6, which induce rheumatoid arthritis, were measured using a real-time PCR (i.e., real-time reverse transcriptase-polymerase chain reaction; quantitative polymerase chain reaction) assay.

Assay [5] relates to EL4 cell line. Put plainly: Foxp3 expression in T cell line, immunostaining and confocal microscopy. The assay is classed as cell-based, mouse. As to conditions: EL4, 20 μM, Th17 differentiation conditions, confocal microscopy.
For assay [6], the system named is peritoneal macrophages. In words: M1 differentiation of intraperitoneal macrophages, PE-CD80 flow cytometry. The assay is classed as cell-based. As to conditions: mouse intraperitoneal macrophages, 10 ng/mL LPS, 20 μM, 24 hours. As to the method:
as §1
Further, a PE-CD80 antibody (eBioscience), which is a M1 marker for recognizing a change of M1 cells, was incubated in these cells for 30 minutes, and then subjected to flow cytometry. As a result, it was confirmed that the M1 differentiation was suppressed when the macrophages were treated with JC1-40, as shown in FIG. 3.
On the technique in general: A flow cytometer gives signals particle by particle.

Assay [7] deals with type II collagen-induced arthritis (CIA). In words: Type II collagen-induced arthritis (CIA) animal model. Particulars: DBA male mice. The assay is classed as in vivo, mouse. As to the method: 6-week-old DBA male mice were inoculated with bovine CII (Chondrex Inc.) emulsified in CFA (Chondrex Inc.), and re-inoculated after 15 days to induce rheumatoid arthritis. After the first administration, JC1-40 dissolved in 0.5% carboxymethyl cellulose (CMC) was continuously orally administered three times a week to the mice at a dose of 10 mg/kg. A 0.5% CMC vehicle and 5 mg/kg of Enbrel as the positive control were administered to the other groups in the same manner. The ratio of the population of the mice developing an arthritic disease was calculated as incidence, and the arthritic tissues were pathophysiologically examined to calculate a degree of progression of the disease as a score and compare conditions of the rheumatoid arthritis disease between the groups. The clinical scores were evaluated using a clinical scoring system which scores the swelling and redness in feet or tail regions by observing arthritis lesions of mice with the naked eye every day to check a degree of progression of inflammatory diseases in the joints.

Assay [8] relates to EL4 cell line. In words: RORα and IL-17 transcription in T cell line under Th17 differentiation conditions, real-time PCR. The assay is classed as cell-based, mouse. As to conditions: EL4, 20 μM pre-treatment 24 hours, Th17 differentiation conditions 48 hours. As to the method: A mouse T cell EL4 cell line (5×10^5 cells/well) was seeded in a 24-well culture dish, pre-treated with 20 μM JC1-40 for 24 hours, and cultured for a day in a RPMI 1640 medium supplemented with 10% FBS. The EL4 cell line was kept at 37° C. in a thermo-hygrostat chamber in which 5% CO2 and 95% air were maintained. After the culturing, the cells were cultured for 48 hours under Th17 differentiation conditions (including 0.5 μg/mL of an anti-CD3 antibody, 1 μg/mL of an anti-CD28 antibody, 2 ng/mL of TGF-β, 20 ng/mL of IL-6, 10 μg/mL of anti-IL-4, and 10 μg/mL of anti-IFN-γ). Expression levels of RORα, which is a JC1-40-activated nuclear receptor, and IL-17, which is an inflammatory marker inducing rheumatoid arthritis, were measured using a real-time PCR (i.e., real-time reverse transcriptase-polymerase chain reaction; quantitative polymerase chain reaction) assay.

Assay [9] has as its system human peripheral blood mononuclear cells (PBMCs). Put plainly: Th17 and Treg differentiation of CD4+ cells from PBMCs, flow cytometry. The assay is classed as cell-based. As to conditions: human CD4+ cells from PBMCs, 10, 20 and 40 μM, Th17 conditions 3 days. As to the method: CD4+ cells were isolated from peripheral blood mononuclear cells (PBMCs) of a healthy human, pre-treated with a varying concentration (10, 20, and 40 μM) of JC1-40, and then cultured for 3 days under Th17 differentiation conditions (including 0.5 μg/mL of anti-CD3, 0.5 μg/mL of anti-CD28, 10 μg/mL of anti-IFN-γ, 10 μg/mL of anti-IL-4, 20 ng/mL of IL-6, and 20 ng/mL of IL-1β). The expression of Th17 (anti IL-17 PE) and Treg (Anti Foxp3-FITC) in these cells was confirmed using flow cytometry. Also, an amount of IL-17 in these supernatants was measured using ELISA.

For assay [10], the system named is CD4+ T cells from spleens. Put plainly: Th17 differentiation of primarily cultured spleen T cells, flow cytometry. The assay is classed as cell-based. Particulars: mouse spleen CD4+ T cells, 0.1, 0.5, 10 and 50 μM, Th17 conditions 3 days. As to the method: CD4+ T cells were isolated from the spleens of 7 to 8-week-old C57BL/6 male mice, seeded in a 48-well dish at a density of 5×10^5 cells/well, pre-treated with a varying concentration of JC1-40 (0.1, 0.5, 10, and 50 μM) for 24 hours, and then cultured for a day in an RPMI1640 medium supplemented with 10% fetal bovine serum (FBS). After the culturing, the cells were cultured for 3 days under Th17 differentiation conditions (including 0.5 μg/mL of an anti-CD3 antibody, 1 μg/mL of an anti-CD28 antibody, 2 ng/mL of TGF-β, 20 ng/mL of IL-6, 10 μg/mL of anti-IL-4, and 10 μg/mL of anti-IFN-γ). Thereafter, the cells were collected, washed with a FACS buffer for flow cytometry, and then blocked at 4° C. for 15 minutes to inhibit non-specific binding. As a cell surface marker, an antibody against CD4 (anti-CD4-PerCP) was added thereto, and reacted at 4° C. for 30 minutes, and the resulting reaction mixture was washed with a perm wash buffer. After a Cytofix/Cytoperm process was performed at 4° C. for 20 minutes, the mixture was washed with a perm wash buffer. Anti-IL-17 PE was added thereto, and reacted at 4° C. for 30 minutes, and the resulting reaction mixture was washed with a perm wash buffer. A change of the stained cells was analyzed using flow cytometry.

Assay [11] deals with osteoclast precursor differentiated from human PBMCs. In words: Osteoclast differentiation-related factor expression in osteoclast precursor from PBMCs, real-time PCR. The assay is classed as cell-based. Particulars: M-CSF 25 ng/mL, RANKL 30 ng/mL, 10, 20, 40 μM. The procedure:
PBMCs of a healthy human were isolated, stimulated with M-CSF (25 ng/mL) for 3 days to induce differentiation into an osteoclast precursor. After 3 days, a medium was replaced with a fresh one, and the cells were stimulated with varying concentrations of M-CSF (25 ng/mL), RANKL (30 ng/mL), and JC1-40 (10, 20, 40 μM), and cultured for 3 days. After the medium was replaced every 3 days, the same stimulus was applied to the cells while a differentiation state of the cells was observed.
RNA was isolated from the differentiated cells, and synthesized into cDNA. Thereafter, a change in mRNA expression levels of the osteoclast differentiation-related factors, Cathepsin K and TRAP, was analyzed using real-time PCR.

The mark [12] stands for this setting: 10 mg/kg orally three times a week.

In the case of `CNC(=S)NCc1ccc(Oc2ccccc2)cc1` [JC1-42, 1-(4-phenoxy-benzyl)-3-methyl-thiourea], in the assay on peritoneal macrophages [1], the “mRNA level of IL-1β” value is on record as “reduced”, the “mRNA level of IL-6” value is listed as “reduced”, the “mRNA level of NOS2” value is “reduced” and the “mRNA level of TNF-α” value is given as “reduced”. In the assay with peritoneal macrophages [2], the “transcription level of Arg1” value was “increased”, the “transcription level of CD206” value is recorded as “increased”, the “transcription level of IL-10” value was “increased” and the “transcription level of Retnla” value is “increased”.

As to `CNC(=S)NCc1ccc(OCc2ccccc2)cc1` [JC1-40, 1-(4-benzyloxy-benzyl)-3-methyl-thiourea], the “amount of secreted IL-17 protein in the culture broth” value in assay [3] was “reduced”. In addition, in [4], the “transcription level of IL-1β” value is “reduced”, the “transcription level of IL-6” value is “reduced”, the “transcription level of NOS2” value is “reduced” and the “transcription level of TNF-α” value was “reduced”. Besides, in the assay with peritoneal macrophages [1], the “mRNA level of IL-1β” value is “reduced”, the “mRNA level of IL-6” value is listed as “reduced”, the “mRNA level of NOS2” value is reported as “reduced” and the “mRNA level of TNF-α” value is recorded as “reduced”. The “expression level of Foxp3” value with EL4 cell line [5] is given as “increased”. Moreover, the “M1 differentiation (CD80 marker)” value in the assay on peritoneal macrophages [6] was “suppressed”. Further, in assay [7] (setting [12]), the arthritis incidence result is given as “suppressed” and the arthritis scores result is “suppressed”. In addition, the “effect compared to Enbrel (positive control)” value in [7] (10 mg/kg orally vs 5 mg/kg Enbrel) is “superior effect”. In the assay on EL4 cell line [8], the “transcription level of IL-17” value was “decreased” and the “transcription level of the nuclear receptor RORα” value was “increased”. Also, in assay [9], the “amount of (FOXP3 positive) cells differentiated into Treg” value was “increased” and the “amount of (IL-17 positive) T cells differentiated into Th17” value is recorded as “decreased”. Besides, the “amount of IL-17 positive cells differentiated into Th17” value in assay [10] is reported as “decreased”. In addition, in assay [11], the “expression of osteoclast differentiation-related factors (Cathepsin K and TRAP mRNA)” value was “significantly reduced”. For the same compound, in the assay with peritoneal macrophages [2], the “transcription level of Arg1” value is listed as “increased”, the “transcription level of CD206” value is “increased”, the “transcription level of IL-10” value was “increased” and the “transcription level of Retnla” value is on record as “increased”.

(Values after patent US20180235912A1, “PHARMACEUTICAL COMPOSITION FOR PREVENTING OR TREATING AUTOIMMUNE DISEASES COMPRISING THIOUREA DERIVATIVE” (SEOUL NATIONAL UNIVERSITY R & DB FOUNDATION, priority 2015, published 2018).)
